From patent US20220177446A1, “ALKYNE COMPOUNDS AS IRAK INHIBITORS, PREPARATION METHODS AND MEDICINAL USES THEREOF” (Eternity Bioscience Inc., priority 2020, published 2022) come the findings set out here.

Like-named read-outs stand apart in the source and are kept apart here.

One experiment concerns the target T1, IRAK4 (Homo sapiens, UniProt Q9NWZ3).
T1 construct: host or cells: human peripheral blood mononuclear cells (PBMCs)
T1 sequence (Q9NWZ3 1-460): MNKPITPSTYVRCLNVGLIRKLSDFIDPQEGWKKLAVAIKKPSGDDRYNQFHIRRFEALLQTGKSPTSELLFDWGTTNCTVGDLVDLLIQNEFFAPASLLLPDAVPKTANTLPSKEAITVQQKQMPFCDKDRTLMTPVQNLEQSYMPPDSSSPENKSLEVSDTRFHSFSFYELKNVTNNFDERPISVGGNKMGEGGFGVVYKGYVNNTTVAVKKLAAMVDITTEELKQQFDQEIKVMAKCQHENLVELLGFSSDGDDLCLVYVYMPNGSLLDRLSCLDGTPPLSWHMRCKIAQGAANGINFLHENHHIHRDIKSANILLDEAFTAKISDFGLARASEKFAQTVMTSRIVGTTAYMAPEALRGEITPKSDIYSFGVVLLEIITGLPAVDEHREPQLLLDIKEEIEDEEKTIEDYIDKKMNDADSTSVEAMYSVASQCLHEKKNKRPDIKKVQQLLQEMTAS
The experiment is described as follows: IRAK4 Human PBMC TNFα Cell Based Assay (AlphaLISA). Particulars: TNFα measured. As for the experimental part:
In this assay, serially diluted compounds were incubated with 1×10^4 human peripheral blood mononuclear cells (PBMCs) from STEMCELL (Cat #70025.1) per well of 384-well plate (Fisher Scientific; 50-905-2761) and cultured with TexMACS medium (Miltenyi, Cat #130-097-196), stimulated by R848 (0.5 μM) or IL-1β (10 ng/ml). Plates were covered with lids and incubated for 4 h (R848, Fisher Scientific, Cat #NC9801605) or 24 h (IL-1β, Fisher Scientific, Cat #ENRIL1BI) at 37° C. in a humidified tissue-culture incubator. After a brief centrifugation at 1000 rpm for 5 minutes, 5 μl of culture medium was used for the measurement of the TNFα amount using TNFα (human) AlphaLISA Detection Kit (PerkinElmer, Cat #AL208C) according to manufacturer's protocol. A biotinylated anti-TNFα antibody binds to the Streptavidin-coated Donor beads while another anti-TNFα antibody is conjugated to AlphaLISA Acceptor beads. In the presence of the TNFα, the beads come into close proximity. The excitation of the Donor beads causes the release of singlet oxygen molecules that triggers a cascade of energy transfer in the Acceptor beads, resulting in a sharp peak of light emission at 615 nm. AlphaLISA assay plates were read using PHERAstar. Percentage of inhibition was calculated as below:
(§1) % inhibition=(1−(Reading(Sample)−Reading(Negative Control))/(Reading(Positive Control)−Reading(Negative Control)))×100%
The 0% inhibition value comes from the Reading of Positive Control wells having 0 nM compound. The 100% inhibition value comes from the Reading of Negative Control wells having no R848 or IL-1β.

For experiment [1], the target named is T2, full length human IRAK4 protein (Homo sapiens, UniProt Q9NWZ3).
T2 construct: Purified full length human IRAK4 protein; purchased Signal Chem I12-10G-125
T2 sequence (Q9NWZ3 1-460): T1 sequence (Q9NWZ3 1-460)
The experiment is described as follows: IRAK4 Biochemical Assay (Promega ADP-Glo IRAK4 Kinase Enzyme System). Particulars: 3 nM enzyme, 250 μM ATP; for IC50: 2 μM MBP, 60 min at room temperature; for IRAK4 Biochemical Assay Max Inhibition (%): maximum inhibition. As for the experimental part:
For the routine compound screening, an IRAK4 kinase assay was performed as follows using Promega ADP-Glo IRAK4 Kinase Enzyme System (Promega, Cat #2198-AD). Purified full length human IRAK4 protein (Signal Chem; Cat #I12-10G-125) was diluted to a concentration 6 nM in assay buffer (25 mM MOPS, pH 7.2, 12.5 mM β-glycerol-phosphate, 25 mM MgCl2, 5 mM EGTA, 2 mM EDTA, 0.0025% Brij-35, add 0.25 mM DTT to Kinase Assay Buffer prior to use) containing IRAK4 inhibitor at 2× the final concentration in 0.4% DMSO. The reaction was performed in PerkinElmer Proxiplate-384 plus white plate (Fisher Scientific, Cat #50-905-2761) and started by the addition of an equal volume of the assay buffer containing 4 μM native swine myelin basic protein (MBP) and 500 μM ATP to achieve a final concentration of 3 nM enzyme, 2 μM MBP, 250 μM ATP, 1× compound, and 0.2% DMSO. The kinase reaction was allowed to run for 60 min at room temperature (25-27° C.), then 5 μL of ADP-Glo was added to the reaction in each well followed by 40 minutes-incubation at RT. To detect converted […], 10 μL Detection Buffer was added into each well and Incubate at RT in dark for 30 minutes. Finally, luminescence was read using Tecan with 1000 ms of integration time. The luminescent signal positively correlates with ADP amount and kinase activity. Data was analyzed by GraphPad Prism and IC50 was calculated using function log(inhibitor) vs. response—Variable slope (four parameters). Percentage of inhibition was calculated as below:
as §1
The 0% inhibition value comes from the Reading of Positive Control wells having 0 nM compound. The 100% inhibition value comes from the Reading of Negative Control wells having no IRAK4 kinase.
(In general: ADP-Glo turns the ADP formed in a reaction into a luminescent signal.)

Another experiment concerns the target T3, CYP2D6 (Homo sapiens, UniProt P10635).
T3 construct: tissue Corning Co, LTD; host or cells: human liver microsomes
The experiment is described as follows: In vitro study for inhibiting cytochrome P450 (CYP) 2D6 using human liver microsomes. In kind it is in vitro ADME. Particulars: human liver microsomes 0.1 mg/ml, probe substrate dextromethorphan 4 μM, 30 min at 37° C.; read-out: IC50 of inhibition on CYP2D6. As for the experimental part:
Potassium phosphate buffer ([…] from Sangon Biotech. Dilute 20×PBS to 100 mM PBS buffer. The stock solutions of NADPH was 5 mM and the final concentration in the incubation system was 1 mM. The stock solution of MgCl2 were 7.5 mM and t the final concentration in the incubation system was 3 mM.
1.1 Preparation of probe substrate solution: The stock solutions of probe substrates of dextromethorphan (Sigma Cat No. D9684) was prepared by using DMSO and the final concentration in incubation system was 4 μM.
1.2 Preparation of selective inhibitors solution: The 30 mM stock solutions of inhibitor of CYP isoforms of Quinidine (Sigma, Q0750) was prepared by using DMSO and the final concentration in incubation system were 30, 10, 3, 1, 0.3, 0.03, 0.003 μM.
1.3 Preparation of test compound 5 and 6 solution: The 30 mM test compound 5 and 6 solutions were prepared by using DMSO and the final concentration in incubation system were 30, 10, 3, 1, 0.3, 0.03, 0.003 μM.
1.4 Human liver microsomes (HLM) were purchased by Corning Co, LTD. Diluted the HLM into 0.25 mg/ml and the final concentration was 0.1 mg/ml.
Added 20 μL working solutions of test compound 5 or 6 or selective inhibitors into a 96-well plate. Then added 40 μL of the HLM working solution and 20 μL of the substrate working solution. […] Samples are now ready for LC/MS/MS analysis.
In general terms: Liver microsomes are vesicles of endoplasmic reticulum, rich in cytochrome P450 enzymes.

Setting [2] is: human PBMCs stimulated by IL-1β (10 ng/ml), 24 h, read-out: IRAK4 PBMC AlphaLISA IL-1β (IC50).
Where [3] appears, read: human PBMCs stimulated by R848 (0.5 μM), 4 h, read-out: IRAK4 PBMC AlphaLISA R848 (IC50).

T3 sequence (P10635 whole entry): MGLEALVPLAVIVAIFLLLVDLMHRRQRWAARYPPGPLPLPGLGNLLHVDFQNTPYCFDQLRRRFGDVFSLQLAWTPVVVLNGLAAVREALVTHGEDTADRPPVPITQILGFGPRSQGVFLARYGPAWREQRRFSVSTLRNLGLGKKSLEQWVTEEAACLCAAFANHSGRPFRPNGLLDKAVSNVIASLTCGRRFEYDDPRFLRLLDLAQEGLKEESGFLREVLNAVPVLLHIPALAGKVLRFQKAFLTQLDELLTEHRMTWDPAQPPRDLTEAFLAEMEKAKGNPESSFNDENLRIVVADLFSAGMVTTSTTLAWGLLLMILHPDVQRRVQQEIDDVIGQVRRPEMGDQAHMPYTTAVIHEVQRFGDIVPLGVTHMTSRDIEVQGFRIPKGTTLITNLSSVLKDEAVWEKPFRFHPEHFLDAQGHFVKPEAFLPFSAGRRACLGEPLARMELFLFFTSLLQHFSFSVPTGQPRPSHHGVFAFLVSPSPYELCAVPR

The IC50 is the concentration that gives 50% inhibition. For the compound `CC[C@@H]1[C@H](F)C(=O)N[C@@H]1COc1ncc(C#CCN(C)C)c2cc(C(N)=O)c(OC)cc12` [Example 5, 4-(3-(dimethylamino)prop-1-yn-1-yl)-1-(((2S,3S,4S)-3-ethyl-4-fluoro-5-oxopyrrolidin-2-yl)methoxy)-7-methoxyisoquinoline-6-carboxamide], the IC50 is 0.0022 µM at IRAK4 (setting [2]), 0.0007 µM at IRAK4 (setting [3]), 0.0062 µM in experiment [1] and more than 30 µM at CYP2D6. Further, the “IRAK4 Biochemical Assay Max Inhibition (%)” value in experiment [1] is on record as 100.0%.

Consider `CC[C@@H]1[C@H](F)C(=O)N[C@@H]1COc1ncc(C#CCOC)c2cc(C(N)=O)c(OC)cc12` [Example 6, 1-(((2S,3S,4S)-3-ethyl-4-fluoro-5-oxopyrrolidin-2-yl)methoxy)-7-methoxy-4-(3-methoxyprop-1-yn-1-yl)isoquinoline-6-carboxamide], for which the IC50 on IRAK4 (setting [2]) is 0.0013 µM; on IRAK4 (setting [3]), 0.001 µM; in experiment [1], 0.0145 µM; on CYP2D6, 13.7 µM. For the same compound, the “IRAK4 Biochemical Assay Max Inhibition (%)” value in experiment [1] is 100.0%.

As to `CC[C@@H]1[C@H](F)C(=O)N[C@@H]1COc1ncc(C#CC(C)(C)N(C)C)c2cc(C(N)=O)c(OC)cc12` [Example 34, 4-(3-(dimethylamino)-3-methylbut-1-yn-1-yl)-1-(((2S,3S,4S)-3-ethyl-4-fluoro-5-oxopyrrolidin-2-yl)methoxy)-7-methoxyisoquinoline-6-carboxamide], the IC50 on IRAK4 (setting [2]) came to 0.046 µM; on IRAK4 (setting [3]), 0.032 µM; in experiment [1], 0.0089 µM. For the same compound, the “IRAK4 Biochemical Assay Max Inhibition (%)” value in experiment [1] turned out to be 92.0%.

Consider `CC[C@@H]1[C@H](F)C(=O)N[C@@H]1COc1ncc(C#CC(C)(C)N(C)C)c2cc(C(N)=O)c(OC(C)C)cc12` [Example 35, 4-(3-(dimethylamino)-3-methylbut-1-yn-1-yl)-1-(((2S,3S,4S)-3-ethyl-4-fluoro-5-oxopyrrolidin-2-yl)methoxy)-7-isopropoxyisoquinoline-6-carboxamide], for which the IC50 at IRAK4 (setting [2]) is 0.11 µM; on IRAK4 (setting [3]), 0.036 µM; in experiment [1] it was 0.039 µM. In addition, the “IRAK4 Biochemical Assay Max Inhibition (%)” value in experiment [1] amounted to 93.0%.
